Read-outs that look alike come from different tables or passages of the source.
System: cyclodextrin glucanotransferase (γ-CGTase, EC 2.4.1.19) of Brevibacterium sp. No. 9605
Type: biochemical
Protocol: (8) Activity measurement: In the measurements of the enzlanological properties described above, enzyme activity was measured by the following method. A 0.05 ml portion of an aqueous solution of the enzyme was added to 0.5 ml of a substrate solution (1.5% by weight soluble starch in 0.1M Atkins & Pantin buffer, pH 10.0) and incubated at 40° C. for 30 minutes. After adding 5 ml of 0.1N hydrochloric acid to terminate the reaction, a 0.5 ml portion of the reaction mixture was taken out and mixed with 5 ml of an iodine solution (0.005% iodine in 0.05% potassium iodide solution) to measure decrease in the absorbance at […]. One unit of the activity was defined as the amount of enzyme which decreases 1% of the absorbance at 660 nm within 1 minute under these conditions.

[1] = enzyme treated with 1 mM inhibitor at 40° C. for 10 minutes in 0.1M H3BO3·KCl-NaOH buffer (pH 8.0), control 100, activity on soluble starch, iodine method

SMILES	Residual Activity (%) (pH 8)	Residual Activity (%) [1] [%]
O=C(O)CI [MIA, monoiodoacetic acid]	82	
CCN1C(=O)C=CC1=O [NEM, N-ethylmaleimide]		84
O=C(O)c1cc[c]([Hg][Cl])cc1 [PCMB, p-chloromercuribenzoic acid]		83
